As usually defined, the TGI is the reduction of tumour growth relative to the control group. For orientation: AUC(0-inf) means the area under the concentration-time curve extrapolated to infinity. A lower AUC(0-inf) goes with low exposure. Broadly, the Cmax is the peak of the concentration-time curve. For orientation: Tmax means the time at which the peak concentration occurs. By half-life is commonly meant the time needed for the level to fall by half in the phase considered. Low readings indicate rapid decline, high ones slow decline.

These results are taken from US12390472B2 (SUZHOU SINOVENT PHARMACEUTICALS CO., LTD., priority 2018, dated 2025).

Read-outs that look alike come from different tables or passages of the source.

The target of one data set is EZH2 (Y641N) (Homo sapiens (Human), UniProt Q15910, Y641N). Kind of data set: Test on EZH2 (Y641N) inhibitory activity. Type of data set: biochemical.
EZH2 (Y641N), sequence (Q15910 whole entry Y641N): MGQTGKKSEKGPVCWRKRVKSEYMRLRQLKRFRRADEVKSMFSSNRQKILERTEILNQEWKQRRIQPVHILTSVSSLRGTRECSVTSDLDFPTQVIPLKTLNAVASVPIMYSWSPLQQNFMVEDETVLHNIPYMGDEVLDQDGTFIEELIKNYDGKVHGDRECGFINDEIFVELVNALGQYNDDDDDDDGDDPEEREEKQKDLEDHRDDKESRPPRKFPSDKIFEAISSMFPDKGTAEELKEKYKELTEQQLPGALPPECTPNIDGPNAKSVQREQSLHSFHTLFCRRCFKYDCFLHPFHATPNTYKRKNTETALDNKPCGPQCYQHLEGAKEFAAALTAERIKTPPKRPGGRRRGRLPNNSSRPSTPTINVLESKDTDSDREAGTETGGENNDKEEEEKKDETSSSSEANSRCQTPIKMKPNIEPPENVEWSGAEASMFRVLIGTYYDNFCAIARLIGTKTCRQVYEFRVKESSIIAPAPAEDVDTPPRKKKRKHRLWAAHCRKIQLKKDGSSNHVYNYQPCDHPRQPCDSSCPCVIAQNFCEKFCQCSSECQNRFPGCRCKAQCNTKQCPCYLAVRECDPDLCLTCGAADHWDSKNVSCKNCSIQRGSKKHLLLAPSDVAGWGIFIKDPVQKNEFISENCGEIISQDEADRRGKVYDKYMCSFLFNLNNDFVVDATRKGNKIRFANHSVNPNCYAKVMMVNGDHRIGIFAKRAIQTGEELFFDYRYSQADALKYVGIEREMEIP
EZH2 (Y641N), sequence (O75530 whole entry partner): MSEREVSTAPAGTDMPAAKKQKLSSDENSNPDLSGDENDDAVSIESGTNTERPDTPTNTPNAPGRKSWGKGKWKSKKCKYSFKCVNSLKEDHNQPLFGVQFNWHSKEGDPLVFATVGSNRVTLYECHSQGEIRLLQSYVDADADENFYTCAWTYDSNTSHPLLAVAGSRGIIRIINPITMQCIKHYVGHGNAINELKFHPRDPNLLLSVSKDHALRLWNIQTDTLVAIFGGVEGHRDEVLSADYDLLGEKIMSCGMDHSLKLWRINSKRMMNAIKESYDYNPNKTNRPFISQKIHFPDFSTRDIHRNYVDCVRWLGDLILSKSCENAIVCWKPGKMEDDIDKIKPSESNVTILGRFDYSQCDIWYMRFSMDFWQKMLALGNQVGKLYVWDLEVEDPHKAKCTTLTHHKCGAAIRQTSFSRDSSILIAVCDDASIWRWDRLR
EZH2 (Y641N), sequence (Q15022 whole entry partner): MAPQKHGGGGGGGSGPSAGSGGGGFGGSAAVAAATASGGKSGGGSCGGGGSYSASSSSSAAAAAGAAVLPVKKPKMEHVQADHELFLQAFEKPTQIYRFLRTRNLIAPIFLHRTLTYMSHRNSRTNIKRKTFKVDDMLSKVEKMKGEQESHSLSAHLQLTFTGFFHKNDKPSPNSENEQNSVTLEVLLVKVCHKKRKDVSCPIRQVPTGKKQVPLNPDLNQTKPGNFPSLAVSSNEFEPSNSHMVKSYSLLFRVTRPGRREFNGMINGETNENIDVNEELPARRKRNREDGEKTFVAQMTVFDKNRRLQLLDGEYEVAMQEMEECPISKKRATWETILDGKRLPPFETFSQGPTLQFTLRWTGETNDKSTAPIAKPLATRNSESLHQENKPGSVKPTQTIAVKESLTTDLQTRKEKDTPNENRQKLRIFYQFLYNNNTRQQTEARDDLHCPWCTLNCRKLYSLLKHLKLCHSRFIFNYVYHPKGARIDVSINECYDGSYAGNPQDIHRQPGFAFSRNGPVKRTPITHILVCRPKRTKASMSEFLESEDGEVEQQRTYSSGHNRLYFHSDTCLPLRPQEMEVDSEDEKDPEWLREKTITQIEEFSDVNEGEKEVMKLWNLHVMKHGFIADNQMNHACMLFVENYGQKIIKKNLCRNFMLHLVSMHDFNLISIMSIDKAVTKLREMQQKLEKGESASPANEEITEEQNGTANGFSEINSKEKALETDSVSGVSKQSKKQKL
The next data set has as its target EZH2 enzyme complex (Homo sapiens (Human), UniProt Q15910). Kind of data set: Test on EZH2 inhibitory activity (TR-FRET). It is filed as biochemical. As to conditions: EZH2 enzyme complex 25 ng/uL, histone H3 peptide 4 uM, SAM 2 uM, 300 min; read-out: IC50 of EZH2 inhibition.
A further data set relates to WSU-DLCL2 cells. Description: Experiment on WSU-DLCL2 cell proliferation (Calcein-AM). Type of data set: cell-based. As to conditions: Homo sapiens.
The target of the next data set is EZH2 (Y641F) (Homo sapiens (Human), UniProt Q15910, Y641F). Kind of data set: Test on EZH2 (Y641F) inhibitory activity. It is filed as biochemical.
EZH2 (Y641F), sequence (Q15910 whole entry Y641F): as the sequence (Q15910 whole entry Y641N) above, with N641F counted along it
EZH2 (Y641F), sequence (O75530 whole entry partner): as the sequence (O75530 whole entry partner) above
EZH2 (Y641F), sequence (Q15022 whole entry partner): as the sequence (Q15022 whole entry partner) above
The target of another data set is EZH2 (wt) (Homo sapiens (Human), UniProt Q15910). Description: Test on EZH2 (wt) inhibitory activity ([3H]-SAM Flashplate). It is filed as biochemical.
EZH2 (wt), sequence (Q15910 whole entry): as the sequence (Q15910 whole entry Y641N) above, with N641Y counted along it
EZH2 (wt), sequence (O75530 whole entry partner): as the sequence (O75530 whole entry partner) above
EZH2 (wt), sequence (Q15022 whole entry partner): as the sequence (Q15022 whole entry partner) above
Data set [1] has as its system subcutaneous xenograft tumor model of human B lymphocyte Pfeiffer. Description: In vivo efficacy in subcutaneous xenograft tumor model of human B lymphocyte Pfeiffer. Set-up: species or system mouse. As to conditions: SCID Beige mice, 100 mg/kg p.o. QD 21 days, tumor volume 21 days after administration. As to the method: Human B lymphocyte strain Pfeiffer was cultured in vitro, in a monolayer way, in a RPMI-1640 medium containing 10% fetal bovine serum, 100 U/mL penicillin and 100 μg/mL streptomycin in an incubator at 37° C./5% CO2. Conventional medium refreshment and subculturing were carried out twice a week, and cells in logarithmic growth phase were collected and used for tumor inoculation after being counted.
Female SCID Beige mice, aged 6-8 weeks and weighed 18-22 g were used in the experiment. The experiment started after 7-day adaptive feed.
Each mouse was inoculated subcutaneously with 10×10^6 Pfeiffer cells in a volume of 0.2 mL in the right side of the neck. The cells were suspended with PBS and matrigel (volume ratio 1:1). After the average tumor volume reached 130 mm^3, the mice were divided into groups with 8 mice per group for administration. The administration volume was 10 uL/g and the dose was 100 mg/kg if there's no special labeling ((p.o. administration, QD, continuous administration for 21 days).
Animal body weights were measured twice weekly and animal mortality and side effects within each group were recorded based on the number of animals in the group.
The experimental indices were to investigate whether tumor growth was inhibited or delayed or the tumor was cured. Tumor diameters were measured twice weekly using a vernier caliper. The tumor volume was calculated according to the following formula: V=0.5 a×b^2, where a and b represent the long diameter and short diameter of the tumor, respectively. The tumor growth inhibitions (TGIs) of the compounds were evaluated by T/C (%). The percentage value of T/C (%) is an index for reflecting the tumor growth inhibition, where T and C represent the average tumor volume of the administration group and the control group, respectively, at a certain day.
The tumor growth inhibition rate was calculated according to the following formula: TGI (%)=(1−(Ti−T0)/(Vi−V0))×100, where Ti is the average tumor volume of a certain administration group on a certain day, T0 is the average tumor volume of the administration group at the start of administration, Vi is the average tumor volume of the vehicle control group on a certain day (same day as Ti) and V0 is the average tumor volume of the vehicle control group at the start of administration.
Relative tumor volumes at each time point for each group were statistically analyzed and differences among groups were assessed based on the data. The statistical method used for testing was one-way ANOVA.

A short description of data set [2]: In vivo pharmacokinetic properties in mice. Set-up: species or system mouse. The conditions noted are these: male ICR mice. In a few lines:
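Male ICR mice, n=3 per group, dosed once at 5 mg/kg IV in 10% DMSO/90% (20% Captisol) or 250 mg/kg intragastrically in 0.5% CMC-Na/0.1% Tween 80 (pH 3-4). EDTA-K2 plasma sampled from 5 min to 24 h; compound levels measured by LC-MS/MS.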

EZH2 enzyme complex, sequence (Q15910 whole entry): as the sequence (Q15910 whole entry Y641N) above, with N641Y counted along it
EZH2 enzyme complex, sequence (O75530 whole entry partner): as the sequence (O75530 whole entry partner) above
EZH2 enzyme complex, sequence (Q15022 whole entry partner): as the sequence (Q15022 whole entry partner) above

Regarding `CCN(c1cc(O[C@H]2C[C@H](N3C[C@@H](C)O[C@@H](C)C3)C2)cc(C(=O)NCc2c(C)cc(C)[nH]c2=O)c1C)C1CCC(F)(F)CC1` [Example 45, 3-((4,4-difluorocyclohexyl)(ethyl)amino)-N-((4,6-dimethyl-2-oxo-1,2-dihydropyridin-3-yl)methyl)-5-(trans-3-(cis-2,6-dimethylmorpholinyl)cyclobutoxy)-2-methylbenzamide], the IC50 is 5.2 nM on EZH2 (Y641N); 10 to 100 nM at EZH2 enzyme complex; 91 nM in the data set with WSU-DLCL2 cells (WSUDLCL2, 168 h, WSU-DLCL2, Day 7, read-out: IC50 WSU-DLCL2 proliferation Day 7); 18 nM in the data set with WSU-DLCL2 cells (WSUDLCL2, 336 h, WSU-DLCL2, Day 14, read-out: IC50 WSU-DLCL2 proliferation Day 14); 3 nM against EZH2 (Y641F); 2.3 nM on EZH2 (wt). The TGI in data set [1] came to 66.20%. This compound registered a F in data set [2] (intragastric 250 mg/kg vs intravenous 5 mg/kg) of 43.5%. In data set [2] (single intravenous 5 mg/kg and intragastric 250 mg/kg study), this compound had a CL of 37.0 ± 8.82 mL/min/lg. The compound also registered an area under the curve AUC(0-inf) in data set [2] (mouse, plasma, oral, single intravenous 5 mg/kg and intragastric 250 mg/kg study) of 50900 ng·h/mL. Besides, the maximum concentration (Cmax) in data set [2] (mouse, plasma, oral, single intravenous 5 mg/kg and intragastric 250 mg/kg study, read-out: Cmax) is 10500 ± 436 ng/mL. The Tmax in data set [2] (mouse, plasma, oral, single intravenous 5 mg/kg and intragastric 250 mg/kg study, read-out: Tmax) is 1 h. Also, the half-life in data set [2] (mouse, plasma, single intravenous 5 mg/kg and intragastric 250 mg/kg study) is 7.44 ± 2.75 h.
